# Patent US20230241188A1 (priority 2020, published 2023)
# Test system: spike mutant (ΔS) SARS-CoV-2 strain (EPI_ISL_578177)
# Type: cell-based
smiles,measurement,value
"CC(=O)N[C@@H](CS)C(=O)O [Acetylcysteine, acetylcysteine]","viral inhibition (CPE, optical and Neutral Red cell staining)",no viral inhibition
